Laboratory results published in PubChem BioAssay AID489027 (Sanford-Burnham Center for Chemical Genomics, 2010).
The source made the active and inactive calls. How the calls were made is not given here.

Biological target: UPR counterscreen luciferase reporter, luminescence
Test: activators in UPR counterscreen luciferase reporter, dose response, counter-screen for adaptive UPR activator project, cell-based, luminescence (AID 489027)

Row | SMILES | EC50
1 | C[C@H]1[C@H](C)CC[C@]2(C(=O)O)CC[C@]3(C)C(=CC[C@@H]4[C@@]5(C)C[C@@H](O)[C@H](O)C(C)(C)[C@@H]5CC[C@]43C)[C@H]12 | > 80 µM (inactive)
2 | COc1ccc(OC)c(Nc2nc(NCc3ccco3)nc(N)c2[N+](=O)[O-])c1 | inactive
3 | Cc1ccc2nc(/C(C#N)=C/c3ccc(O)c(O)c3)[nH]c2c1 | 13.7 µM
4 | COC(=O)c1sccc1NC(=O)c1cc(-c2cccc(C)c2)nc2ccccc12 | > 80 µM (inactive)
5 | CC(C)(C)c1ccc(C(=O)Nc2ccc(O)c3c(=O)cc(-c4cccc(Cl)c4)oc23)cc1 | > 80 µM (inactive)
6 | Cc1ccccc1NC(=O)c1ccc(N/N=C/c2ccccc2O)c([N+](=O)[O-])c1 | 7.98 µM
7 | CCOC(=O)c1c(NC(=O)/C=C/C(=O)O)sc(C)c1-c1ccc(C(C)(C)C)cc1 | > 80 µM (inactive)
8 | Cc1cccc(NC(=O)c2nc[nH]c2C(=O)Nc2ccccc2[N+](=O)[O-])c1 | > 80 µM (inactive)
9 | COc1ccc2nc(NC(=O)c3cccc(-c4cc5ccccc5oc4=O)c3)sc2c1 | > 80 µM (inactive)
10 | CC1(C)C=Cc2c(c3c(c4c(=O)c(-c5ccc(O)cc5)coc24)OC(C)(C)CC3)O1 | 13.1 µM
11 | O=C(Oc1ccc(F)cc1C(=O)/C=C/c1cccs1)c1cccc([N+](=O)[O-])c1 | inactive
12 | Cc1cc(SCC(=O)c2ccc(O)c(O)c2)n2nc(C)c(-c3ccccc3)c2n1 | > 80 µM (inactive)
13 | COC(=O)Cc1csc(/N=C/c2c(O)n(-c3cccc(C(F)(F)F)c3)c(=O)c3ccccc23)n1 | > 80 µM (inactive)
14 | CCc1ccc(-n2c(SCC(=O)c3ccc4c(c3)NC(=O)CO4)nc3ccccc3c2=O)cc1 | 9.34 µM
15 | CCOc1ccc(C(=O)Nc2cc(-c3nc4ccccc4[nH]3)ccc2Cl)cc1[N+](=O)[O-] | 17.7 µM
16 | CCC(=O)Nc1ccc(NC(=O)CSc2nc3cc4c(cc3cc2C)CCC4)cc1 | > 80 µM (inactive)
17 | CCN(CC)c1ccc(/C=C/[N+](=O)[O-])cc1 | 11.3 µM
18 | Oc1ccc(/C=N/Nc2nc(N3CCCC3)nc(N3CCCC3)n2)cc1O | 3.95 µM
19 | Cc1ccc2c(=O)[nH]c(Nc3nc(C)cc(-c4ccccc4)n3)nc2c1 | > 80 µM (inactive)
20 | CC(C)=CCCC1(C)C=Cc2c(c(C)cc3c2[nH]c2cc(O)ccc23)O1 (stereo unspecified) | inactive
21 | C/C(=N/Nc1cc(-c2ccccc2)nc(-c2ccccc2)n1)c1ccc(O)cc1 | 15.4 µM
22 | C=C(C)[C@@]12OC3(c4ccccc4)O[C@@H]1C1[C@@H]4O[C@]4(CO)[C@@H](O)[C@]4(O)C(=O)C(C)=C[C@H]4[C@@]1(O3)[C@H](C)[C@H]2OC(=O)/C=C/C=C/c1ccccc1 (stereo partly specified) | inactive
23 | COc1ccc(-c2ccc(C#N)c(SCC(=O)Nc3sc4c(c3C#N)CCC4)n2)cc1OC | > 80 µM (inactive)

Row | SMILES | EC50
24 | O=[N+]([O-])c1cccc(/C=C/c2ccc3cccc(O)c3n2)c1 | > 80 µM (inactive)
25 | Cc1cc(C)c2c(c1)/C(=N/Nc1ccc(S(N)(=O)=O)cc1[N+](=O)[O-])CCC2 | > 80 µM (inactive)
26 | CC(C)(C)C(=O)NC(=S)NNC(=O)c1ccc(-c2ccccc2)cc1 | 8.05 µM
27 | Cc1ccccc1OCc1nc(-c2ccc(NC(=O)c3ccc4c(c3)OCO4)cc2)no1 | inactive
28 | CCN(CC)CCn1c(SCC(=O)Nc2ccc(F)cc2)nc2c(sc3ccccc32)c1=O | > 80 µM (inactive)
29 | O=C(COC(=O)/C=C/c1cn(-c2ccccc2)nc1-c1cccnc1)Nc1ccc(Cl)cc1Cl | 14.3 µM
30 | O=C(/C=C/c1ccccc1)c1ccccc1O | 13.2 µM
31 | Cc1ccc2nc(NC(=O)c3ccc(-c4nc5ccccc5s4)s3)sc2c1 | 11 µM
32 | COc1ccccc1Nc1nnc(SCC(=O)NC(=O)Nc2ccc3c(c2)OCCO3)s1 | > 80 µM (inactive)
33 | O=C(NC(=S)Nc1cc(-c2nc3ccccc3[nH]2)ccc1Cl)c1ccc2c(c1)OCO2 | 8.21 µM
34 | CCn1c(/C=C/c2c(C)[nH]c3ccccc23)nc2ccccc2c1=O | > 80 µM (inactive)
35 | O=C(/C=C/c1ccc(Cl)cc1)NC(=S)Nc1ccc(N2CCOCC2)c(Cl)c1 | > 80 µM (inactive)
36 | O=C(NCC1CCCO1)c1nn2c(C(F)(F)F)cc(-c3cc(Br)cs3)nc2c1Br (stereo unspecified) | > 80 µM (inactive)
37 | COc1cc([C@H]2c3[nH]c4ccccc4c3C[C@H]3C(=O)N4[C@@H](c5cc(OC)c(OC)c(OC)c5)c5[nH]c6ccccc6c5C[C@H]4C(=O)N23)cc(OC)c1OC | 7.28 µM
38 | Oc1ccc(/C=N/Nc2cc(N3CCOCC3)nc(N3CCOCC3)n2)cc1O | 3.8 µM
39 | O=C(/C=C/c1ccco1)NC(=S)Nc1ccc(O)c(-c2nc3ccccc3s2)c1 | 11 µM
40 | COc1ccc(-c2csc(NC(=S)NC(=O)/C=C/c3ccccc3)n2)cc1Br | inactive
41 | CCCNC(=O)c1c(N)n(-c2ccc3c(c2)OCO3)c2nc3ccccc3nc12 | > 80 µM (inactive)
42 | C#CCn1c(=NC(=O)c2ccc(Cl)s2)sc2cccc(OC)c21 | > 80 µM (inactive)
43 | CCC1CCc2c(sc3nc(SCC(=O)NCc4ccco4)n(-c4ccccc4)c(=O)c23)C1 (stereo unspecified) | 15.8 µM
44 | Cc1ccc2c(c1)c(N=NC(N)=S)c(O)n2Cc1ccccc1 | > 80 µM (inactive)
45 | C/C(CCC12CC3CC(CC(C3)C1)C2)=N\NC(N)=S | inactive
46 | CCOC(=O)C(=CNc1nc(-c2ccccc2)c(C(=O)Nc2ccc(-c3ccccc3)cc2)s1)C(=O)OCC | inactive

Row | SMILES | EC50
47 | C=CCOc1ccc(/C=N/N2C(=O)C(CC(=O)Nc3ccc(F)cc3F)SC2=NC)cc1 (stereo unspecified) | > 80 µM (inactive)
48 | CC(C)(C)c1csc(NC(=O)c2ccc(Cl)s2)n1 | > 80 µM (inactive)
49 | COc1ccc([N+](=O)[O-])cc1COc1ccc2c(-c3ccccc3)cc(=O)oc2c1 | inactive
50 | Cc1ccc2nc(SCC(=O)Nc3cc(C(F)(F)F)ccc3N3CCOCC3)[nH]c2c1 | inactive
51 | CN(/N=C\c1ccc(O)c(O)c1)c1nc(-c2ccccc2)cc(-c2ccccc2)n1 | 7.52 µM
52 | N#Cc1ccc(N/N=C/c2cn(-c3ccccc3)nc2-c2ccccc2)c([N+](=O)[O-])c1 | inactive
53 | CCOC(=O)c1c(NC(C)=O)sc2c(OCC(O)CNC(C)(C)C)c(Br)ccc12 (stereo unspecified) | > 80 µM (inactive)
54 | O=C(O)c1ccc(N2C(=O)/C(=C/c3ccc(-c4ccc([N+](=O)[O-])cc4)o3)C=C2c2ccccc2)cc1 | > 80 µM (inactive)
55 | Cc1ccc2nc(Nc3nc(C)cc(-c4ccccc4)n3)[nH]c(=O)c2c1 | > 80 µM (inactive)
56 | COC(=O)c1cc([N+](=O)[O-])c(-n2ccnc2)c([N+](=O)[O-])c1 | > 80 µM (inactive)
57 | COc1cccc(-c2sc3ccccc3c2-c2ccc(OCCN(C)C)cc2)c1 | 12.6 µM
58 | CC1CCCN(c2ccc(C(=O)NCc3cccs3)cn2)C1 (stereo unspecified) | > 80 µM (inactive)
59 | COc1ccc(Nc2nc(N)c([N+](=O)[O-])c(NC3CCCCC3)n2)cc1 | > 80 µM (inactive)
60 | Cc1ccc(C(=O)Nc2cc(S(=O)(=O)N3CCOCC3)ccc2N2CCCC2)cc1 | inactive
61 | O=C(C[C@H]1C/C=C\C[C@@H](NC(=O)OCC2c3ccccc3-c3ccccc32)C(=O)O[C@@H](c2ccccc2)CNC1=O)N[C@H](CO)Cc1ccccc1 | 18.1 µM
62 | O=c1cc(CN2CCN(c3ccc(F)cc3)CC2)c2cc3c(cc2o1)CCCC3 | 8.79 µM
63 | Cc1ccc(Nc2nc(NCc3ccco3)c3ccccc3n2)cc1 | > 80 µM (inactive)
64 | COc1ccc2cc3c(N)nn(C(=O)C4CCC(C(C)(C)C)CC4)c3nc2c1 (stereo unspecified) | > 80 µM (inactive)
65 | CN(C)c1ccc(/C=N/NC(=O)c2ccc(NC(=O)c3ccccc3)cc2)cc1 | inactive
66 | Cc1ccc2c(c1)C(=O)C(=O)N2Cc1ccc(Br)cc1 | inactive
67 | CCOC(=O)c1c2ccc(OCC(=O)N/N=C/c3ccc(C)cc3)cc2n2ccccc12 | 17.3 µM
68 | CCOc1ccccc1-n1c(SCC(=O)Nc2ccc(CC)cc2)nc2n[nH]c(C)c2c1=N | 5.3 µM
69 | CCOc1ccc(NC(=O)C(Cc2ccccc2)N2C(=O)c3cccc4cccc(c34)C2=O)cc1 (stereo unspecified) | > 80 µM (inactive)

Row | SMILES | EC50
70 | O=C(Nc1nc2ccc(Cl)cc2s1)c1ccc(N2CCCCC2)c([N+](=O)[O-])c1 | inactive
71 | CC1CCC(C(C)C)C(OC(=O)Cn2c(-c3ccc(Cl)cc3)[n+](C)c3ccccc32)C1 (stereo unspecified) | 13.4 µM
72 | COc1ccc2cc1Oc1ccc(cc1)CC1c3c(cc(OC)c4c3Oc3cc5c(cc3O4)CCNC5C2)CCN1C (stereo unspecified) | > 80 µM (inactive)
73 | CC(C)(C)C(=O)NC(=S)NNC(=O)c1sc2ccccc2c1Cl | > 80 µM (inactive)
74 | Cc1cc(C)c(NC(=O)CSc2nc(COc3ccccc3)nc3ccccc23)c(C)c1 | inactive
75 | Cc1ccc2nc(N(CCCN(C)C)C(=O)c3ccc(S(=O)(=O)N4CCc5ccccc5C4)cc3)sc2c1 | 10.9 µM
76 | O=C(Nc1ccc2nc3n(c(=O)c2c1)CCCCC3)c1ccccc1Cl | > 80 µM (inactive)
77 | CCCCNc1c(-c2ccc(-c3ccc(C(C)=O)cc3)c(OC)c2)nc2cc(C)ccn12 | > 80 µM (inactive)
78 | CCOc1cc(/C=N/N=C(/N)c2nonc2N)cc(Br)c1OCc1ccc(Cl)cc1 | > 80 µM (inactive)
79 | COc1ccc2nc(/C(C#N)=C\c3ccc(Oc4ccc([N+](=O)[O-])cn4)cc3)[nH]c2c1 | > 80 µM (inactive)
80 | COc1ccc(C(=O)/C=C/c2cccs2)c(OC(=O)c2cccc([N+](=O)[O-])c2)c1 | inactive
81 | CCOC(=O)c1nnc(-c2ccccc2)nc1Oc1ccc(Cl)cc1 | 19.6 µM
82 | CC(C)c1cccc(-c2ccc3c(c2)S(=O)(=O)c2cccc(C(=O)NCc4ccccc4Cl)c2C3=O)c1 | 7.24 µM
83 | Oc1ccc(Br)cc1/C=N/Nc1ccccn1 | > 80 µM (inactive)
84 | Cc1ccc2c(c1)C(c1ccc(N3CCOCC3)cc1)=NNC(c1cccs1)=N2 | inactive
85 | c1cc(SC2CCCCC2)cc(-c2nc3cnccn3c2NC2CCCCC2)c1 | 12.6 µM
86 | CCOC(=O)c1c(NC(=O)c2cc(-c3ccc(O)cc3)on2)sc(C(C)=O)c1C | > 80 µM (inactive)
87 | FC(F)(F)c1nnc2c(Sc3ccc(Cl)cc3)nc3ccccc3n12 | 4.67 µM
88 | CN(C)CCCN(C(=O)c1ccc(S(=O)(=O)N2CCCCCC2)cc1)c1nc2ccc(Br)cc2s1 | 12.7 µM
89 | COc1cccc(-n2c(SCC(=O)N3CCc4ccccc43)nnc2-c2c[nH]c3ccccc23)c1 | > 80 µM (inactive)
90 | O=c1cc2oc3cc(O)c(O)cc3c(-c3ccccc3[N+](=O)[O-])c-2cc1O | > 80 µM (inactive)
91 | NS(=O)(=O)c1ccc(NC(=O)COC(=O)c2cn(-c3ccccc3)nc2-c2ccc(F)cc2)cc1 | inactive
